In article PMC8950244, “New Alpha-Amylase Inhibitory Metabolites from Pericarps of Garcinia mangostana” (Life, 2022):

molecular target: T1, porcine pancreatic α-amylase (Sus scrofa, UniProt P00690); assay: fluorescence DQ starch hydrolysis assay (EnzChek Ultra Amylase kit); assay type: biochemical
T1 construct: gene AMY2
T1 sequence (P00690 16-511): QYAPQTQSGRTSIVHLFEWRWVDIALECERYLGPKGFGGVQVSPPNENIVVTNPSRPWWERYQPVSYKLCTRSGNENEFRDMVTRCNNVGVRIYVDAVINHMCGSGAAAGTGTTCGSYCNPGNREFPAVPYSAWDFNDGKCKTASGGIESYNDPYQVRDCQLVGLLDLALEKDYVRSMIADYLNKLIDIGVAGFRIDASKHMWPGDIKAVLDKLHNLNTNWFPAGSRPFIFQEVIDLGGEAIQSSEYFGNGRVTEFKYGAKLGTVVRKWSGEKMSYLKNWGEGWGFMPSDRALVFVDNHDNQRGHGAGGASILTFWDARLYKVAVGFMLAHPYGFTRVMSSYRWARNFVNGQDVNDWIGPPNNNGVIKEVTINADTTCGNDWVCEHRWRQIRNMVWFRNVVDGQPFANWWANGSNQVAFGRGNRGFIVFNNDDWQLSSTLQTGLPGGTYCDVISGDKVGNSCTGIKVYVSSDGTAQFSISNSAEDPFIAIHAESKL

`CC(C)=CCc1c(O)cc2oc3c(/C=C\C(C)(C)O)c(O)c(O)c(CC=C(C)C)c3c(=O)c2c1O` [compound 5, mangostanaxanthone VI] and `O=C(c1cc(O)cc(O)c1O)c1c(O)cc(O)cc1O` [compound 6, garcimangophenone A] are within 1.5-fold of each other in IC50: 16.1 µM for the first, 12.2 µM for the second.

Compound `O=C(c1cc(O)ccc1O)c1c(O)cc(O)cc1O[C@@H]1O[C@H](CO)[C@@H](O)[C@H](O)[C@H]1O` [compound 7, garcimangophenone B] has an IC50 of 9.3 µM.
